Assay results reported in BigSolDB 2.1.

COc1ccc2c(c1)c(CC(=O)O)c(C)n2C(=O)c1ccc(Cl)cc1
Settings	solubility (mole fraction)
in PEG-400, 293.15 K	0.0751
in PEG-400, 298.15 K	0.0831
in PEG-400, 303.15 K	0.0923
in PEG-400, 308.15 K	0.102
in PEG-400, 313.15 K	0.114
in PEG-400, 318.15 K	0.127

in water
Settings	solubility (mole fraction)
293.15 K	4.73e-08
298.15 K	5e-08
303.15 K	5.31e-08
308.15 K	5.58e-08
313.15 K	5.85e-08
318.15 K	6.16e-08
